The source of these data is US5942489A, “HGH-RH(1-29)NH2 analogues having antagonistic activity” (The Administrators of the Tulane Educational Fund, priority 1996, dated 1999).

Where a SMILES comes first, the peptide text is derived from it. Bridges are numbered along the chain shown (N, C = ends). Where no end group is shown, it is not given here. [ ]: non-standard residue; d: D form. The star is where a group is joined. Phe(4-Cl) = N[C@@H](Cc1ccc(Cl)cc1)C(=O)O; Nle = CCCC[C@H](N)C(=O)O; Abu = CC[C@H](N)C(=O)O; PhAc = O=C(Cc1ccccc1)*

The target of test [1] is T1, rat pituitary GH-RH receptors (Rattus norvegicus, UniProt Q02644).
T1 construct: from tissue; host or cells: anterior pituitary of male Sprague-Dawley rats, crude membranes
T1 sequence (Q02644 23-464): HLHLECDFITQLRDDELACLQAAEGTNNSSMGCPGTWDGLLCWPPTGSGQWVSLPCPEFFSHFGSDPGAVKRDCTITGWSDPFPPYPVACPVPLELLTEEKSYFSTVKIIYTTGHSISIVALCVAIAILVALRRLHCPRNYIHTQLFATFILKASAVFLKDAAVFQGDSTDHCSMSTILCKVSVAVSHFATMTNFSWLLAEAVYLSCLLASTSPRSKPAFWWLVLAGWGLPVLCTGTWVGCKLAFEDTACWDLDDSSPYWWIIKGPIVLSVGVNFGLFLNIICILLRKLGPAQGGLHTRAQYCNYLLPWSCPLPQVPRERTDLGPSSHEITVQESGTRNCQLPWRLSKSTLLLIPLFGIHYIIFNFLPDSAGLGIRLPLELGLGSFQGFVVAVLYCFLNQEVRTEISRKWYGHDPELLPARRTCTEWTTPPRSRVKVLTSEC
The test is described as follows: GH-RH radioreceptor binding assay, competition with labelled [His1,Nle27]hGH-RH(1-32)NH2. Particulars: for Ki: rat anterior pituitary membrane homogenates, read-out: Ki values, K. As to the method:
GH-RH Binding Assay. A sensitive radioreceptor binding assay was developed to determine the binding characteristics of the antagonists of GH-RH (G. Halmos, A. V. Schally et al., Receptor 3, 87-97, 1993), hereby incorporated by reference. The assay is based on binding of labelled [His^1, Nle^27 ]hGH-RH(1-32)NH2 to rat anterior pituitary membrane homogenates. Iodinated derivatives of [His^1, Nle^27 ]hGH-RH(1-32)NH2 are prepared by the chloramine-T method (F. C. Greenwood et al., Biochemistry 89:114-123, 1963), hereby incorporated by reference. Pituitaries from male Sprague-Dawley rats (250-300 g) are used to prepare crude membranes. For saturation binding analyses, membrane homogenates are incubated with at least 6 concentrations of [His^1,125I-Tyr^10,Nle^27 ]hGH-RH(1-32)NH2, ranging from 0.005 to 0.35 nM in the presence or absence of excess unlabelled peptide (1 μM).
The pellet is counted for radioactivity in a γ-counter. The affinities of the antagonist peptides tested to rat pituitary GH-RH receptors are determined in competitive binding experiments. The final binding affinities are estimated by Ki (dissociation constant of the inhibitor-receptor complex) and are determined by the Ligand PC computer program of Munson and Rodbard as modified by McPherson. Relative affinities compared to [Ac-Tyr^1, D-Arg^2 ]hGH-RH(1-29)NH2, the Standard antagonist, are calculated as the ratio of Ki of the tested GH-RH antagonist to the Ki of the Standard antagonist.

For test [2], the system named is GH release induced by 1 nM hGH-RH(1-29)NH2 in superfused rat pituitary cells. The test is described as follows: Inhibition of hGH-RH(1-29)NH2-induced GH release in superfused rat pituitary system. It counts as cell-based. Particulars: 100 nM peptide. As to the method:
Superfused Rat Pituitary System. The analogues were tested in vitro in a test described earlier (S. Vigh and A. V. Schally, Peptides 5:241-[…], 1984) with modification (Z. Rekasi and A. V. Schally, P. N. A. S. 90:2146-2149, 1993).
Briefly, the cells are preincubated with peptides for 9 minutes (3 mL) at various concentrations. Immediately after the incubation, 1 nM hGH-RH(1-29)NH2 is administered for 3 minutes (1 mL) [0 minute response]. To check the duration of the antagonistic effect of the analogue, 1 nM hGH-RH(1-29)NH2 is applied 30, 60, 90, and 120 minutes later for 3 minutes [30, 60, 90, 120 min responses]. Net integral values of the GH responses are evaluated. GH responses are compared to and expressed as percent of the original GH response induced by 1 nM GH-RH(1-29)NH2. The effect of the new antagonists are compared to that of [Ac-Tyr^1,D-Arg^2 ]hGH-RH(1-29)NH2, the "Standard antagonist".
Growth Hormone Radio-immunoassay. Rat GH levels in aliquots of undiluted and diluted superfusion samples were measured by double-antibody radioimmunoassay using materials supplied by the National Hormone and Pituitary Program, Baltimore, Md. The results of RIA were analyzed with a computer program developed in our institute (V. Csernus and A. V. Schally, Harwood Academic (Greenstein, B. C. ed., London, pp. 71-109, 1991), hereby incorporated by reference. Inter-assay variation was less than 15% and intra-assay variation was less than 10%.

The test system of a further test is GH releasing activity. Particulars: cited from earlier work; for bioactivity of shorter analogues: compared with hGH-RH(1-29)NH2; for GH releasing activity relative to GH-RH: percent of that of GH-RH.
Test [3] concerns SW-1990 human pancreatic cancers. The test is described as follows: SW 1990 human pancreatic cancers in nude mice. Particulars: dose 10, 44 days treatment. It is filed as in vivo. As to the method: Small piees of an SW-1990 rumor growing in a nude mouse were transplated s.c. into the right flanks of 60 nu/nu male nude mice. Ten days after transplantation, 40 mice with well growing tumors were groupled into 4 groups with equal average tumor volume (16 mm^3) in each group. Treatment started 13 days after transplantation and was continuted for 44 days. The tumors were measured and volume was calculated weekly. Tumor volume changes are shown in Table V. On day 45 of treatment the mice were sacraficed under Metofane anesthesia by exsanguination from abdominal aorta. Blood was collected, tumor and organ weights were determined.

The term Ki denotes a dissociation constant, usually derived from enzyme kinetics or from competition with a known ligand.

With `CCCC[C@H](NC(=O)[C@@H](NC(=O)[C@H](CC(=O)O)NC(=O)[C@H](CCC(N)=O)NC(=O)[C@H](CC(C)C)NC(=O)[C@H](CC(C)C)NC(=O)[C@H](CCCCN)NC(=O)[C@H](CCCNC(=N)N)NC(=O)[C@H](C)NC(=O)[C@H](CO)NC(=O)[C@H](CC(C)C)NC(=O)[C@H](CCC(N)=O)NC(=O)[C@H](C)NC(=O)[C@H](CC(C)C)NC(=O)[C@@H](NC(=O)[C@H](CCCCN)NC(=O)[C@H](CCCNC(=N)N)NC(=O)[C@H](Cc1ccc(O)cc1)NC(=O)[C@H](CO)NC(=O)[C@H](CC)NC(=O)[C@@H](NC(=O)[C@H](Cc1ccc(Cl)cc1)NC(=O)[C@@H](NC(=O)[C@H](C)NC(=O)[C@H](CC(=O)O)NC(=O)[C@@H](CCCNC(=N)N)NC(=O)[C@H](Cc1ccc(O)cc1)NC(=O)Cc1ccccc1)[C@@H](C)CC)[C@@H](C)O)C(C)C)[C@@H](C)CC)C(=O)N[C@@H](CO)C(=O)N[C@@H](CCCNC(=N)N)C(N)=O` [Peptide 11, [PhAc^0,D-Arg^2,Phe(pCl)^6,Abu^8,Ala^15,Nle^27],hGH-RH(1-29)NH2] (PhAc-Y[dR]DAI[Phe(4-Cl)]T[Abu]SYRKVLAQLSARKLLQDI[Nle]SR-NH2), in test [1], the inhibition constant Ki came out at 0.059 ± 0.001 nM.

Take `CCCC[C@H](NC(=O)[C@@H](NC(=O)[C@H](CC(=O)O)NC(=O)[C@H](CCC(N)=O)NC(=O)[C@H](CC(C)C)NC(=O)[C@H](CC(C)C)NC(=O)[C@@H]1CCCCNC(=O)CC[C@H](NC(=O)[C@H](CCC(N)=O)NC(=O)[C@H](C)NC(=O)[C@H](CC(C)C)NC(=O)[C@@H](NC(=O)[C@H](CCCCN)NC(=O)[C@H](CCCNC(=N)N)NC(=O)[C@H](Cc2ccc(O)cc2)NC(=O)[C@H](CO)NC(=O)[C@H](CO)NC(=O)[C@@H](NC(=O)[C@H](Cc2ccc(Cl)cc2)NC(=O)[C@@H](NC(=O)[C@H](C)NC(=O)[C@H](CC(=O)O)NC(=O)[C@@H](CCCNC(=N)N)NC(=O)[C@H](Cc2ccc(O)cc2)NC(=O)Cc2ccccc2)[C@@H](C)CC)[C@@H](C)O)C(C)C)C(=O)N[C@@H](CO)C(=O)N[C@@H](C)C(=O)N[C@@H](CCCNC(=N)N)C(=O)N1)[C@@H](C)CC)C(=O)N[C@@H](CO)C(=O)N[C@@H](CCCNC(=N)N)C(N)=O` [Peptide 18, cyclo^17,21 [PhAc^0,D-Arg^2,Phe(pCl)^6,Ser^8,Ala^15,Glu^17,Nle^27]hGH-RH(1-29)NH2] (PhAc-Y[dR]DAI[Phe(4-Cl)]TSSYRKVLAQESARKLLQDI[Nle]SR-NH2; lactam 17-21): the Ki in test [1] amounted to 0.159 ± 0.04 nM. Regarding `CCCC[C@H](NC(=O)[C@@H](NC(=O)[C@@H]1CCC(=O)NCCCC[C@H](NC(=O)[C@H](CCCNC(=N)N)NC(=O)[C@H](C)NC(=O)[C@H](CO)NC(=O)[C@H](CC(C)C)NC(=O)[C@H](CCC(N)=O)NC(=O)[C@H](C)NC(=O)[C@H](CC(C)C)NC(=O)[C@@H](NC(=O)[C@H]2CCCCNC(=O)CC[C@H](NC(=O)[C@@H](NC(=O)[C@H](Cc3ccc(Cl)cc3)NC(=O)[C@@H](NC(=O)[C@H](C)NC(=O)[C@H](CC(=O)O)NC(=O)[C@@H](CCCNC(=N)N)NC(=O)[C@H](Cc3ccc(O)cc3)NC(=O)Cc3ccccc3)[C@@H](C)CC)[C@@H](C)O)C(=O)N[C@@H](CO)C(=O)N[C@@H](Cc3ccc(O)cc3)C(=O)N[C@@H](CCCNC(=N)N)C(=O)N2)C(C)C)C(=O)N[C@@H](CC(C)C)C(=O)N[C@@H](CC(C)C)C(=O)N[C@@H](CCC(N)=O)C(=O)N1)[C@@H](C)CC)C(=O)N[C@@H](CO)C(=O)N[C@@H](CCCNC(=N)N)C(N)=O` [Peptide 23, cyclo^8,12; 21,25 [[PhAc^0,D-Arg^2,Phe(pCl)^6,Glu^8,25,D-Lys^12,Ala^15,Nle^27]hGH-RH(1-29)-NH2] (PhAc-Y[dR]DAI[Phe(4-Cl)]TESYR[dK]VLAQLSARKLLQEI[Nle]SR-NH2; lactam 8-12, 21-25), the Ki in test [1] is 0.456 nM. `CC[C@H](C)[C@H](NC(=O)[C@H](C)NC(=O)[C@H](CC(=O)O)NC(=O)[C@@H](CCCNC(=N)N)NC(=O)[C@H](Cc1ccc(O)cc1)NC(C)=O)C(=O)N[C@@H](Cc1ccccc1)C(=O)N[C@H](C(=O)N[C@@H](CC(N)=O)C(=O)N[C@@H](CO)C(=O)N[C@@H](Cc1ccc(O)cc1)C(=O)N[C@@H](CCCNC(=N)N)C(=O)N[C@@H](CCCCN)C(=O)N[C@H](C(=O)N[C@@H](CC(C)C)C(=O)NCC(=O)N[C@@H](CCC(N)=O)C(=O)N[C@@H](CC(C)C)C(=O)N[C@@H](CO)C(=O)N[C@@H](C)C(=O)N[C@@H](CCCNC(=N)N)C(=O)N[C@@H](CCCCN)C(=O)N[C@@H](CC(C)C)C(=O)N[C@@H](CC(C)C)C(=O)N[C@@H](CCC(N)=O)C(=O)N[C@@H](CC(=O)O)C(=O)N[C@H](C(=O)N[C@@H](CCSC)C(=O)N[C@@H](CO)C(=O)N[C@@H](CCCNC(=N)N)C(N)=O)[C@@H](C)CC)C(C)C)[C@@H](C)O` [Standard antagonist, [Ac-Tyr^1,D-Arg^2]hGH-RH(1-29)NH2] (Ac-Y[dR]DAIFTNSYRKVLGQLSARKLLQDIMSR-NH2): in test [2] (0 min response), the “Inhibition of GH release (%) 0 min” value amounted to 62.1%. Moreover, the “Inhibition of GH release (%) 30 min” value in test [2] (30 min response) worked out at 2.5%. In addition, in test [2] (60 min response), the “Inhibition of GH release (%) 60 min” value is 19%. For the same compound, the inhibition constant Ki in test [1] amounted to 3.37 ± 0.14 nM. Moreover, the “relative affinities (R.A.)” value in test [1] (relative to Standard antagonist (=1)) is reported as 1. For the compound “GH-RH(1-27)NH2 (YADAIFTNSYRKVLGQLSARKLLQDIM-NH2; UniProt P01286 32-58, looked up, fragment)”, the “bioactivity of shorter analogues” value in the test with GH releasing activity is “substantially lower bioactivity”. Take “GH-RH(1-28)NH2 (YADAIFTNSYRKVLGQLSARKLLQDIMS-NH2; UniProt P01286 32-59, looked up, fragment)”: the “bioactivity of shorter analogues” value with GH releasing activity is listed as “substantially lower bioactivity”.

As for “[Ac-Tyr^1 ]GH-RH (Ac-YADAIFTNSYRKVLGQLSARKLLQDIMSRQQGESNQERGARARL; ends and bridges not checked; UniProt P01286 32-75, looked up)”, in the test on GH releasing activity, the “GH releasing activity relative to GH-RH” value is 2-3%. Turning to [D-Tyr^1 ]GH-RH, the “GH releasing activity relative to GH-RH” value in the test with GH releasing activity is recorded as 2-3%. For “[PhAc^0,D-Arg^2,Phe(pCl)^6,Abu^15,Nle^27 ]hGH-RH(1-28)Agm [Peptide B]”, in test [3], the “Final Tumor Volume mm^3” value came to 612 ± 220 mm^3 and the “Tumor weights” value is listed as 931 ± 330 mg. “hGH-RH(2-44) (ADAIFTNSYRKVLGQLSARKLLQDIMSRQQGESNQERGARARL; ends and bridges not checked; UniProt P01286 33-75, looked up, fragment) [GH-RH without its N-terminus residue]”: the “GH releasing activity relative to GH-RH” value in the test with GH releasing activity is recorded as 0.1%.
